Like-named read-outs stand apart in the source and are kept apart here.
How the values were obtained:
RORγ = RORγ (Homo sapiens, UniProt P51449); test: RORγ Gal4 Reporter Gene Assay; type: cell-based
Procedure, shortened: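 Cells at 5×10^5/well were transfected with RORγ fragments fused to the GAL4 DNA-binding domain (CMV promoter), a 5×GAL4-site firefly luciferase reporter and CMV-Renilla luciferase for normalization. About 4 h later serum-free MEM and compound were added (vehicle ≤0.1%). Cultures at 37 °C, 5% CO2; at least triplicates.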

[1] = molecular target: RORγ ligand binding domain (LBD) (Homo sapiens (Human), UniProt P51449); test: TR-FRET Activity Assay (ligand sensing assay, LANCE); conditions: for pIC50 (FRET): TR-FRET, interaction of RORγ-LBD with coactivator peptide
From the text: The ligand-binding domain (LBD) of RORγ was expressed as fusion protein with GST in BL-21 (BL3) cells using the vector pDEST15. Cells were lysed by lysozyme-treatment and sonication, and the fusion proteins purified over glutathione sepharose (Pharmacia) according to the manufacturers instructions. For screening of compounds for their influence on the RORγ-peptide interaction, the LANCE technology (Perkin Elmer) was applied. This method relies on the binding dependent energy transfer from a donor to an acceptor fluorophor attached to the binding partner of interest. For ease of handling and reduction of background from compound fluorescence LANCE technology makes use of generic fluorophore labels and time resolved detection assays were done in a final volume of 25 μL in a 384 well plate, in a Tris-based buffer system (20 mM Tris-HCl pH 6.8; 60 mM KCl, 1 mM DTT; 5 mM MgCl2; 35 ng/μL BSA), containing 20-60 ng/well recombinantly expressed RORγ-LBD fused to GST, 200-600 nM N-terminally biotinylated peptide, 200 ng/well Streptavidin-xlAPC conjugate (Prozyme) and 6-10 ng/well Eu W1024-antiGST (Perkin Elmer). DMSO content of the samples was kept at 1%.
After generation of the Tris-based buffer system, the potentially RORγ modulating ligands were diluted. […] The LANCE signal was detected by a Perkin Elmer EnVision™ Multilabel Counter. […] Ligands that promote the complex formation induce a concentration-dependent increase in time-resolved fluorescent signal.
Y is the response. Y starts at Bottom and goes to Top with a sigmoidal shape.
This is identical to the “four parameter logistic equation”. The IC50 values are calculated using this equation.

[2] = firefly (FF) luciferase, 293T cells, read-out: pIC50 (FF) (converted)
[3] = renilla normalised (RENnorm) luciferase, 293T cells, read-out: pIC50 (REN) (converted)

Chain of RORγ (P51449 whole entry, looked up, the tested form may be a part): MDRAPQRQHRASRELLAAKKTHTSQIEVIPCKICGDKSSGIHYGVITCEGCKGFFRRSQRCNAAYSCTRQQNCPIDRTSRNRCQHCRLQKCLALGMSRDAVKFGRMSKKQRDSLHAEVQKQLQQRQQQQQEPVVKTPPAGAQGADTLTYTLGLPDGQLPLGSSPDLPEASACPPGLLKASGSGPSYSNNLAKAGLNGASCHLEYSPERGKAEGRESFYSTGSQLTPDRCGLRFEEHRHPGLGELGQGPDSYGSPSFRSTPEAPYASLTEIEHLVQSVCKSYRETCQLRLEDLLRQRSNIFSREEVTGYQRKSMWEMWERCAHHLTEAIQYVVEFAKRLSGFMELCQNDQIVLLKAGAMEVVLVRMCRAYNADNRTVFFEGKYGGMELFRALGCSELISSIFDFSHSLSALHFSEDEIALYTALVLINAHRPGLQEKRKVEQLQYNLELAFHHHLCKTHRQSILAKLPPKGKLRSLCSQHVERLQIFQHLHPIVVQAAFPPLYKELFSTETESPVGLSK
Chain of RORγ ligand binding domain (LBD) (P51449 269-508): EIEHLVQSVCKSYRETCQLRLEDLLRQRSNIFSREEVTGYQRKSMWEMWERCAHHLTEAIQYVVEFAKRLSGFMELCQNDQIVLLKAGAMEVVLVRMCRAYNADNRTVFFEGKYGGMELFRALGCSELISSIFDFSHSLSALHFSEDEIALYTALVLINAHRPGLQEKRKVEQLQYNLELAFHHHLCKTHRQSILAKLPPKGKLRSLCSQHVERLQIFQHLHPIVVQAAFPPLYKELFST

| Structure (SMILES) | pIC50 (FF) (RORγ) | pIC50 (REN) (RORγ) | pIC50 (FRET) [1] | IC50 (RORγ; [2]) [nM] | IC50 (RORγ; [3]) [nM] | IC50 [1] [nM] | pIC50 (FF) (RORγ; firefly (FF) luciferase, 293T cells) | pIC50 (REN) (RORγ; renilla normalised (RENnorm) luciferase, 293T cells) |
| --- | --- | --- | --- | --- | --- | --- | --- | --- |
| CC(C)(C)NS(=O)(=O)c1ccc(-c2sc(C(=O)NCC(C)(C)C(=O)O)nc2CC2CCCCC2)cc1C(F)(F)F [9/3] | 6.4/7.2/7.4 | 6.4/7.2/7.4 | 6.4/7.2/7.4 |  |  |  |  |  |
| CC(C)(C)c1cc(-c2sc(S(N)(=O)=O)nc2CC2CCCCC2)cc(C2(C)CC2)c1 [Example 13, 5-(3-(tert-Butyl)-5-(1-methylcyclopropyl)phenyl)-4-(cyclohexylmethyl)thiazole-2-sulfonamide] | 7.0/6.5/6.7 | 7.0/6.5/6.7 | 7.0/6.5/6.7 |  |  |  |  |  |
| CC(C)(C)NS(=O)(=O)c1ccc(-c2sc(C(=O)NCCC(C)(C)C(=O)O)nc2CC2CCCCC2)cc1C(C)(C)C [Example 7/1] | 6.1/6.8/6.9 | 6.1/6.8/6.9 | 6.1/6.8/6.9 |  |  |  |  |  |
| CC(C)(C)NS(=O)(=O)c1ccc(-c2sc(C(=O)N[C@H]3C[C@H](C(=O)O)C3)nc2CC2CCCCC2)c(F)c1OC(F)(F)F [19/10] | 6.7/8.4/8.5 | 6.7/8.4/8.5 | 6.7/8.4/8.5 |  |  |  |  |  |
| CC(C)(C)NS(=O)(=O)c1ccc(-c2nc(C(=O)NC3CCS(=O)(=O)CC3)oc2CC2CCCCC2)c2ccccc12 [Example 103, 4-(4-(N-(tert-Butyl)sulfamoyl)naphthalen-1-yl)-5-(cyclohexylmethyl)-N-(1,1-dioxidotetrahydro-2H-thiopyran-4-yl)oxazole-2-carboxamide] | 6.3/7.2/7.3 | 6.3/7.2/7.3 | 6.3/7.2/7.3 |  |  |  |  |  |
| COC(c1nc(C(=O)N[C@H]2C[C@H](C(=O)O)C2)sc1-c1ccc(S(=O)(=O)NC(C)(C)C)c(Cl)c1Cl)C1CCCCC1 (stereo partly drawn) [19/4] | 6.0/7.3/7.2 | 6.0/7.3/7.2 | 6.0/7.3/7.2 |  |  |  |  |  |
| CC(C)(C)NS(=O)(=O)c1ccc(-c2sc(C(=O)N[C@H]3C[C@H](C(=O)O)C3)nc2CC2CCCCC2)c(OC(F)F)c1Cl [21/3] |  |  |  | 10 | 5.01 | 398 |  |  |
| CC(C)(C)NS(=O)(=O)c1ccc(-c2sc(C(=O)NC3CS(=O)(=O)C3)nc2CC2CCCCC2)c(Cl)c1Cl [15/4] | 7.3/8.7/9.0 | 7.3/8.7/9.0 | 7.3/8.7/9.0 |  |  |  |  |  |
| CC(C)(C)NS(=O)(=O)c1ccc(-c2oc(C(=O)NCC3(O)CCS(=O)(=O)CC3)nc2CC2CCCCC2)c2ccccc12 [100/8] | 6.5/8.0/8.2 | 6.5/8.0/8.2 | 6.5/8.0/8.2 |  |  |  |  |  |
| CC(C)(O)CNC(=O)c1nc(CC2CCCCC2)c(-c2ccc(S(=O)(=O)NC(C)(C)C)c(Cl)c2OC(F)F)s1 [21/4] | 6.9/8.2/8.4 | 6.9/8.2/8.4 | 6.9/8.2/8.4 |  |  |  |  |  |
| CC(C)(O)CNC(=O)c1nc(CC2CCC2)c(-c2ccc(S(=O)(=O)NC(C)(C)C)c(Cl)c2Cl)s1 [Example 21, 5-(4-(N-(tert-butyl)sulfamoyl)-2,3-dichlorophenyl)-4-(cyclobutylmethyl)-N-(2-hydroxy-2-methylpropyl)thiazole-2-carboxamide] | 7.0/8.1/8.2 | 7.0/8.1/8.2 | 7.0/8.1/8.2 |  |  |  |  |  |
| CC(C)(O)c1cc(-c2sc(C(=O)N[C@H]3C[C@H](C(=O)O)C3)nc2CC2CCCCC2)cc(C2(C)CC2)c1 [9/4] | 6.5/7.1/7.1 | 6.5/7.1/7.1 | 6.5/7.1/7.1 |  |  |  |  |  |
| CC(C)(C)NS(=O)(=O)c1ccc(-c2oc(C(=O)N3CC4(CCS(=O)(=O)CC4)C3)nc2CC2CCCCC2)c2ccccc12 [100/9] | 6.3/8.5/8.5 | 6.3/8.5/8.5 | 6.3/8.5/8.5 |  |  |  |  |  |
| CC(C)(C)NS(=O)(=O)c1ccc(-c2sc(C(=O)NC3CS(=O)(=O)C3)nc2CC2CCCCC2)cc1C(C)(C)O [15/3] | 6.9/7.9/7.9 | 6.9/7.9/7.9 | 6.9/7.9/7.9 |  |  |  |  |  |
| C[C@H](NC(=O)c1cc(-c2sc(C(=O)NCC(C)(C)O)nc2CC2CCCCC2)cc(C2(C)CC2)c1)C(F)(F)F [8/6] | 7.0/8.2/8.3 | 7.0/8.2/8.3 | 7.0/8.2/8.3 |  |  |  |  |  |
| CC(C)(C)NS(=O)(=O)c1ccc(-c2sc(C(=O)N3CC4CC(C3)O4)nc2CC2CCCCC2)c(Cl)c1Cl [6/44] | 7.4/7.8/8.0 | 7.4/7.8/8.0 | 7.4/7.8/8.0 |  |  |  |  |  |

| Structure (SMILES) | pIC50 (FF) (RORγ) | pIC50 (REN) (RORγ) | pIC50 (FRET) [1] | IC50 (RORγ; [2]) [nM] | IC50 (RORγ; [3]) [nM] | IC50 [1] [nM] | pIC50 (FF) (RORγ; firefly (FF) luciferase, 293T cells) | pIC50 (REN) (RORγ; renilla normalised (RENnorm) luciferase, 293T cells) |
| --- | --- | --- | --- | --- | --- | --- | --- | --- |
| CC(O)c1c(S(=O)(=O)NC(C)(C)C)ccc(-c2sc(C(=O)N3CC4(CCS(=O)(=O)CC4)C3)nc2CC2CCCCC2)c1Cl (stereo not drawn) [21/10] | 5.9/6.7/6.7 | 5.9/6.7/6.7 | 5.9/6.7/6.7 |  |  |  |  |  |
| CC(C)(O)CNC(=O)c1nc(CC2CCCCC2)c(-c2ccc(S(=O)(=O)NC(C)(C)C)c(C(C)(C)O)c2)s1 [6/23] | 6.6/7.5/7.6 | 6.6/7.5/7.6 | 6.6/7.5/7.6 |  |  |  |  |  |
| CC(C)(C)NS(=O)(=O)c1ccc(-c2sc(S(N)(=O)=O)nc2CC2CCCCC2)cc1C(F)(F)F [13/2] | 6.5/6.7/6.8 | 6.5/6.7/6.8 | 6.5/6.7/6.8 |  |  |  |  |  |
| CC(C)(C)NS(=O)(=O)c1ccc(-c2sc(C(=O)N3CC4(CCS(=O)(=O)CC4)C3)nc2CC2CCCCC2)c(Cl)c1Cl [6/45] | 7.1/7.9/8.0 | 7.1/7.9/8.0 | 7.1/7.9/8.0 |  |  |  |  |  |
| CC(C)(C)NS(=O)(=O)c1ccc(-c2sc(C(=O)NCCC(C)(C)C(N)=O)nc2CC2CCCCC2)cc1C(F)(F)F [Example 10, N-(4-Amino-3,3-dimethyl-4-oxobutyl)-5-(4-(N-(tert-butyl)sulfamoyl)-3-(trifluoromethyl)phenyl)-4-(cyclohexylmethyl)thiazole-2-carboxamide] | 5.9/6.9/7.0 | 5.9/6.9/7.0 | 5.9/6.9/7.0 |  |  |  |  |  |
| CC(C)(C)NS(=O)(=O)c1ccc(-c2sc(C(=O)N[C@H]3C[C@H](C(=O)O)C3)nc2CC2CCCCC2)c(C(F)F)c1Cl [7/16] | 6.5/8.5/8.5 | 6.5/8.5/8.5 | 6.5/8.5/8.5 |  |  |  |  |  |
| COc1ccc(-c2sc(C(=O)N[C@H]3C[C@H](C(=O)O)C3)nc2CC2CCCCC2)c2ccccc12 [7/20] |  |  |  | 251 | 251 | > 20000 |  |  |
| CC(C)(C)c1cc(-c2sc(C(=O)NCC3(C(N)=O)CCOCC3)nc2CC2CCCCC2)cc(C2(C)CC2)c1 [6/2] | 7.0/7.5/7.7 | 7.0/7.5/7.7 | 7.0/7.5/7.7 |  |  |  |  |  |
| CC(C)(C)NS(=O)(=O)c1ccc(-c2sc(C(=O)N[C@H]3C[C@H](C(=O)O)C3)nc2CC2CCCCC2)cc1C(C)(C)C [7/2] | 6.2/7.5/7.6 | 6.2/7.5/7.6 | 6.2/7.5/7.6 |  |  |  |  |  |
| CC(C)(C)NC(=O)c1cc(-c2sc(C(=O)N[C@H]3C[C@H](C(=O)O)C3)nc2CC2CCCCC2)cc(C(C)(C)C)c1 [9/7] | 6.2/7.4/7.5 | 6.2/7.4/7.5 | 6.2/7.4/7.5 |  |  |  |  |  |
| CC(C)(C)NS(=O)(=O)c1ccc(-c2sc(C(=O)NC3CCC3)[n+]([O-])c2CC2CCCCC2)c2ccccc12 [Example 22/1] |  |  | 6.4 |  |  |  | 7.5 | 7.5 |
| CC(C)(O)CNC(=O)c1ncc(CC2CCCCC2)c(-c2cc(C(C)(C)C)cc(C(C)(C)C)c2)n1 [Example 207/1] | 6.0/6.2/6.1 | 6.0/6.2/6.1 | 6.0/6.2/6.1 |  |  |  |  |  |
| CC(C)(C)c1cc(-c2sc(C(=O)N[C@H]3C[C@H](C(=O)O)C3)nc2CC2CCCCC2)cc(C(F)F)c1 [7/5] | 6.3/7.0/7.1 | 6.3/7.0/7.1 | 6.3/7.0/7.1 |  |  |  |  |  |
| CC(C)(C)NS(=O)(=O)c1ccc(-c2oc(C(=O)NCC3(O)CCOCC3)nc2CC2CCCCC2)c2ccccc12 [100/5] | 6.3/8.1/8.2 | 6.3/8.1/8.2 | 6.3/8.1/8.2 |  |  |  |  |  |
| CCNS(=O)(=O)c1ccc(-c2sc(C(=O)NCC(C)(C)O)nc2CC2CCCCC2)c(Cl)c1Cl [Example 18, 4-(Cyclohexylmethyl)-5-(2,3-dichloro-4-(N-ethylsulfamoyl)phenyl)-N-(2-hydroxy-2-methylpropyl)thiazole-2-carboxamide] | 6.9/8.1/8.0 | 6.9/8.1/8.0 | 6.9/8.1/8.0 |  |  |  |  |  |
| CC(C)(C)NS(=O)(=O)c1ccc(-c2sc(C(=O)NC34CC(C(=O)O)(C3)C4)nc2CC2CCCCC2)c(Cl)c1Cl [6/38] | 6.8/7.8/7.9 | 6.8/7.8/7.9 | 6.8/7.8/7.9 |  |  |  |  |  |
